Here are results for three compounds from patent publication US9428540B2, “Fatty acid esters of glucocorticoids as anti-inflammatory and anti-cancer agents” (priority 2007, dated 2016).

Experiment [1] concerns GM-CSF release. Briefly: Inhibition of IL-1β-stimulated GM-CSF release in A549 TRE cells. It is filed as cell-based. Particulars: for IC50: IL-1β-stimulated, 24 hours exposure; for fold more potent inhibition of GM-CSF release compared to fluticasone propionate: versus fluticasone propionate. As to the method: IL-1β-stimulation causes an increase in granulocyte-macrophage colony-stimulating factor (GM-CSF) release after 24 hours in A549 TRE (AP-1 regulation) cells. Inhibition of the GM-CSF release is measured after 24 hours exposure to a test compound.

The subject of experiment [2] is LUC reporter gene under the control of the PPARα 5′-flanking and promoter region. The experiment in a line: LUC reporter gene activity in transiently transfected COS-1 cells (pMT-hGR). Type of experiment: cell-based, Monkey. On the set-up: gene activation less than fluticasone propionate / luciferase activity/β-galactosidase (in percent (%) of Fluticasone propionate): concentration or dose not given beside the values. Particulars: for luciferase activity/β-galactosidase (in percent (%) of Fluticasone propionate): COS-1 cells, harvested after 72 h. As to the method:
Monkey kidney COS-1 cells (ATCC CRL 1650) were grown in Dulbecco's modified Eagle's medium (Gibco BRL, Grand Island, N.Y.) as described elsewhere (9). Transient transfections of COS-1 cells were performed as described elsewhere (10). The cells were plated at a density of 2×10^5 cells/well. Each well received 5 μg test plasmid, 5 μg β-galactosidase control plasmid as an internal control and either 2 μg expression plasmid, pMT-hGR or pGL3-basic as carrier. Plasmid details: The mouse PPARα gene is described elsewhere (11). Vectors expressing the LUC reporter gene under the control of the PPARα5′-flanking and promoter region were constructed in the pGL3-LUC vector (Promega). The PPARα 5′-flanking sequence between −2800 bp and +100 bp was cloned into NheI digested pGL3-LUC to generate the PPAR (−2800/+100) LUC plasmid Each transfection was performed in triplicates. The cells were transfected 24 h after plating together with fresh medium containing ligand. After 72 h cells were harvested, cytosol extracts were prepared and LUC activities were measured according to the Promega protocol. Results were normalized against β-galactosidase activities measured by incubating 100 μl extract with 0.28 mg o-nitrophenyl-D-galactoside (ONPG) in 50 mM phosphate buffer pH 7.0, 10 mM KCl, 1 mM MgCl2 for 30 min at 30° C. and reading absorbance at 420 nm.

The subject of experiment [3] is THP-1 cells. The experiment in a line: CellTiter 96 Non-Radioactive cell proliferation (MTS) assay, 48 h. Particulars: for IC50: THP1 cells, 48 hours incubation, read-out: THP1 cells, IC50 μM ± SD. Type of experiment: cell-based, human. As to the method:
(§1) The U937 and THP-1 cell lines were seeded, 20 000 cells per well, in 96-well-plates. 50 μl cell culture medium was added to each well. At the same time test compounds were added in 5 different concentrations and incubated for 48 hours. The CellTiter 96® Non-Radioactive cell proliferation assay (Promega) was used to study the cytotoxicity of test compounds in these cells. This assay is a colorimetric method for determining the number of viable cells in proliferation or chemosensitivity assays. It is composed of solutions of a novel tetrazolium compound (3-(4,5-dimethylthiazol-2-yl)-5-(3-carboxymethoxyphenyl)-2-(4-sulfophenyl)-2H-tetrazolium, inner salt; MTS) and an electron coupling reagent (phenazine methosulfate; PMS). MTS is bioreduced by cells into a formazan product that is soluble in tissue culture medium. The absorbance of the formazan at 490 nm can be measured directly from 96 well assay plates without additional processing. The quantity of formazan product as measured by the amount of 490 nm absorbance is directly proportional to the number of living cells in culture (IC50 values). The test compounds were fluticasone propionate and fluticasone elaidic acid derivative.

Experiment [4] deals with U937 cells. The experiment is described as above. Type of experiment: cell-based, human. Particulars: for IC50: read-out: U937 cells, IC50 μM ± SD. As to the method: as §1
Experiment [5] deals with GRE-luciferase. The experiment in a line: Induction of GRE-luciferase activity in stably transfected A549 GRE-luciferase cells. Type of experiment: cell-based.
[6] abbreviates: listed as fluticasone elaidic acid ester derivative.

Where two headings read alike, the source gives them in different places.

As a reminder, the IC50 is the concentration needed to halve the response being measured. Usually EC50 stands for the concentration at which the effect is half-maximal. `CCC(=O)O[C@]1(C(=O)SCF)[C@H](C)C[C@H]2[C@@H]3C[C@H](F)C4=CC(=O)C=C[C@]4(C)[C@@]3(F)[C@@H](O)C[C@@]21C` [Fluticasone propionate, reference compound]: the concentration for half-maximal inhibition (IC50) in experiment [1] (Homo sapiens) was 0.31 nM; in experiment [3] (Homo sapiens, THP-1), > 100 µM; in experiment [4] (Homo sapiens, U-937, 48 hours incubation) it was > 100 µM. Besides, in experiment [2], the “luciferase activity/β-galactosidase (in percent (%) of Fluticasone propionate)” value was 100%. Moreover, the “activity in THP1 cells (resistance)” value in experiment [3] (up to 100 μM) is on record as “no activity seen up to 100 μM”. Further, in experiment [4] (up to 100 μM), the “activity in U937 cells (resistance)” value is on record as “no activity seen up to 100 μM”. Further, in experiment [5] (Homo sapiens, read-out: EC50 of induction of GRE-luciferase reporter activity), the 50% effective concentration (EC50) came out at 0.51 nM.
Turning to “6α,9α-Difluoro-16α-elaidoyloxy-11β-hydroxy-16α-methyl-3-oxoandrosta-1,4-diene-17β-carboxylic acid”, the “luciferase activity/β-galactosidase (in percent (%) of Fluticasone propionate)” value in experiment [2] and in experiment [2] (listed as flumethasone elaidic acid ester derivative) was 2% each time.
On to `CCCCCCCCC=CCCCCCCCC(=O)OC1(C(=O)SCF)C(C)CC2C3CC(F)C4=CC(=O)C=CC4(C)C3(F)C(O)CC21C` (centres unmarked) [Fluticasone elaidic acid derivative], for which the values for the IC50 in experiment [1], in experiment [3] and in experiment [4] (48 hours incubation) were 0.014 nM, 10 µM and 1 µM, respectively. The “fold more potent inhibition of GM-CSF release compared to fluticasone propionate” value in experiment [1] is listed as 22 fold; in experiment [1] (listed as flucticasone elaidic acid ester derivative), “more than 20 fold”; in experiment [1] (setting [6]) it was 22 fold. In addition, the “luciferase activity/β-galactosidase (in percent (%) of Fluticasone propionate)” value in experiment [2] (listed as Fluticasone elaidic acid ester derivative) and in experiment [2] (setting [6]) was 15% each time. For the same compound, the “gene activation less than fluticasone propionate” value in experiment [2] (activation as a measure for side effects) came out at 85%. In addition, the “fold decrease in side effects (activation of GRE elements)” value in experiment [2] (versus fluticasone propionate) turned out to be 7 fold. The “effect on GRE-luciferase activity” value in experiment [5] was “lack of effect”.
